Assay results reported in US20230382926A1, “COMPOUNDS AND USES THEREOF” (The University of The West Indies, priority 2022, published 2023).

Key:
Assay in all cases: Rescue concentration, modified checkerboard MIC adjuvant assay
Assay type in all cases: cell-based
[1] = system: Enterococcus faecalis ATCC 51299; conditions: E. faecalis ATCC 51299
Procedure: (§1) Reference microorganisms as well as clinical strains used to evaluate the antimicrobial adjuvant properties of SP-6azaBIM 125 and SP-6azaBIM 136 are listed in Table 3. Clinical strains of bacteria were kindly provided by the Faculty of Medical Sciences, UWI, St. Augustine, Trinidad. All bacterial cultures were cryopreserved in 30% glycerol/Brain Heart Infusion (BHI) at −80° C. Cultures were revived on BHI agar (Oxoid Ltd, England) and maintained at 4° C. until needed.
(§2) Prior to each experiment, cultures were streaked onto clean BHI agar plates and incubated at 35° C. for 24 hours. Colonies of the respective cultures were selected and inoculated in phosphate buffer saline (pH 7.5) to a 0.5 McFarland turbidity standard (equivalent to 10^8 CFU mL^−1). For inhibitory studies the bacterial suspensions were diluted 1:100 in cation-adjusted Mueller Hinton Broth (ca-MHB) (Oxoid Ltd, England). Fastidious bacteria including Streptococcus pneumoniae, Haemophilus infuenzae and Clostridium difficile were maintained on BHI agar with 5% defibrinated sheep blood and diluted in ca-MHB with 5% defibrinated sheep blood.
(§3) Antibiotic powders used in this study were purchased from Sigma Aldrich Ltd. (WI, USA). Antibiotic stock solutions were made at 50 mg mL^−1 according to Andrews (2001) and working solutions were prepared 24 h before use and stored at 4° C.
(§4) HCl salts of the of the SP-azaBIM test compounds were prepared prior to testing and stored at 4° C. Working preparations of each compound were made to 1 mg/mL in sterile deionised water.
(§5) The antibiotic adjuvant activity of the SPazaBIMs were evaluated in combination with representative antibiotics (representing 13 antibiotic classes) against the 19 pathogens strains listed in Table 3. To assess the adjuvant properties of the SP-azaBIM molecules, a modified checkerboard minimum inhibitory concentration assay was used. A fixed concentration of the respective antibiotic (susceptible breakpoint concentration) was mixed with a twofold dilution series of the test SP-azaBIM (FIG. 1). This was to determine the concentration of SP-azaBIM needed potentiate the antibiotic at a clinically susceptible breakpoint concentration. Antibiotic susceptible breakpoint concentrations for the respective bacteria were determined using Clinical Laboratory Standards Institute (CLSI) criteria M100 ED31.
(§6) In this study, only those antibiotics to which the bacterial was classed as resistant were included in the adjuvant assays. In this assay we recorded the rescue concentration of the SP-BIM for a respective antibiotic. The rescue concentration was defined as the concentration of the adjuvant that reduces the minimum inhibitory concentration (MIC) of an antibiotic to the susceptibility breakpoint.
(§7) Immediately prior to testing, the respective antibiotic and SP-azaBIM was dissolved in sterile deionised water at 20× the required test concentration. Each microtiter well was then inoculated with 180 μl of bacterial inoculum of 10^6 CFU/ml in ca-MHB, and 10 μl each if the antibiotic and SP-azaBIM was added to the plates. These plates were then incubated at 35° C. for 24 h under aerobic conditions. A similar method was followed for the fastidious pathogens except that they were cultured in ca-MHB with 5% sheep blood and 5% CO2.
(§8) Bacterial growth was visually inspected after the incubation period and the rescue concentration of the test SP-azaBIM was determined as the lowest concentration of the compound needed to reduce bacterial growth by 99.99% at the susceptible breakpoint concentration of the antibiotic. For example, CLSI states that Pseudomonas aeruginosa is susceptible to the Imipenem if the MIC is ≤2 μg mL^−1. If the bacteria can tolerate this concentration in vitro, then the bacteria has an intermediate or absolute resistance toward that antibiotic. […]

[2] = system: Pseudomonas aeruginosa MDR 5805; conditions: P. aeruginosa MDR 5805
Procedure: as §1, §2, §3, §4, §5, §6, §7, §8

[3] = system: Acinetobacter baumannii clinical isolate 9978; conditions: A. baumannii clinical isolate 9978
Procedure: as §1, §2, §3, §4, §5, §6, §7, §8

[4] = system: Enterobacter cloacae ATCC BAA-1143; conditions: E. cloacae ATCC BAA-1143
Procedure: as §1, §2, §3, §4, §5, §6, §7, §8

[5] = system: Streptococcus pneumoniae ATCC 49619; conditions: S. pneumoniae ATCC 49619
Procedure: as §1, §2, §3, §4, §5, §6, §7, §8

[6] = system: Escherichia coli ATCC 35150; conditions: E. coli ATCC 35150
Procedure: as §1, §2, §3, §4, §5, §6, §7, §8

[7] = system: Klebsiella pneumoniae ATCC BAA-2814; conditions: K. pneumoniae ATCC BAA-2814
Procedure: as §1, §2, §3, §4, §5, §6, §7, §8

[8] = system: Klebsiella pneumoniae ATCC 49472; conditions: K. pneumoniae ATCC 49472
Procedure: as §1, §2, §3, §4, §5, §6, §7, §8

[9] = system: Staphylococcus aureus ATCC BAA-2312; conditions: S. aureus ATCC BAA-2312
Procedure: as §1, §2, §3, §4, §5, §6, §7, §8

[10] = Amp at susceptible breakpoint 8 μg mL^−1
[11] = Chl at susceptible breakpoint 8 μg mL^−1
[12] = Dox at susceptible breakpoint 4 μg mL^−1
[13] = Tri at susceptible breakpoint 8 μg mL^−1
[14] = Amox at susceptible breakpoint 8 μg mL^−1
[15] = Col at susceptible breakpoint 2 μg mL^−1
[16] = Gen at susceptible breakpoint 4 μg mL^−1
[17] = Imi at susceptible breakpoint 2 μg mL^−1
[18] = Mero at susceptible breakpoint 2 μg mL^−1
[19] = Pol B at susceptible breakpoint 2 μg mL^−1
[20] = Azi at susceptible breakpoint 16 μg mL^−1
[21] = Ceph at susceptible breakpoint 8 μg mL^−1
[22] = Col at susceptible breakpoint 8 μg mL^−1
[23] = Imi at susceptible breakpoint 1 μg mL^−1
[24] = Tet at susceptible breakpoint 4 μg mL^−1

Brc1ccc(C(c2c[nH]c3ncccc23)c2c[nH]c3ncccc23)cc1 [SP-7azaBIM 126, 3,3′-((4-bromophenyl)methylene)bis(1H-pyrrolo[2,3-b]pyridine)]
Rescue concentration, Amp (8) [1, 10]: 32 µg/mL
Rescue concentration, Chl (8) [1, 11]: >128 µg/mL
Rescue concentration, Dox (4) [1, 12]: >128 µg/mL
Rescue concentration, Ery (0.5) ([1]; Ery at susceptible breakpoint 0.5 μg mL^−1): >128 µg/mL
Rescue concentration, Tri (8) [1, 13]: >128 µg/mL
Rescue concentration, Van (4) ([1]; Van at susceptible breakpoint 4 μg mL^−1): 64 µg/mL
Rescue concentration, Amox (8) [2, 14]: >128 µg/mL
Rescue concentration, Col (2) [2, 15]: >128 µg/mL
Rescue concentration, Gen (4) [2, 16]: >128 µg/mL
Rescue concentration, Imi (2) [2, 17]: >128 µg/mL
Rescue concentration, Mero (2) [2, 18]: >128 µg/mL
Rescue concentration, Pol B (2) [2, 19]: >128 µg/mL
Rescue concentration, Amox (8) [3, 14]: >128 µg/mL
Rescue concentration, Cef (8) ([3]; Cef at susceptible breakpoint 8 μg mL^−1): >128 µg/mL
Rescue concentration, Col (2) [3, 15]: >128 µg/mL
Rescue concentration, Gen (4) [3, 16]: >128 µg/mL
Rescue concentration, Imi (2) [3, 17]: >128 µg/mL
Rescue concentration, Mero (2) [3, 18]: >128 µg/mL
Rescue concentration, Pol B (2) [3, 19]: >128 µg/mL
Rescue concentration, Amp (8) [4, 10]: 128 µg/mL
Rescue concentration, Azi (16) [4, 20]: >128 µg/mL
Rescue concentration, Ceph (8) [4, 21]: >128 µg/mL
Rescue concentration, Chl (8) [4, 11]: >128 µg/mL
Rescue concentration, Col (8) [4, 22]: >128 µg/mL
Rescue concentration, Dox (4) [4, 12]: >128 µg/mL
Rescue concentration, Gen (4) [4, 16]: >128 µg/mL
Rescue concentration, Imi (1) [4, 23]: >128 µg/mL
Rescue concentration, Tet (4) [4, 24]: >128 µg/mL
Rescue concentration, Amox (2) ([5]; Amox at susceptible breakpoint 2 μg mL^−1): >128 µg/mL
Rescue concentration, Ery (0.25) ([5]; Ery at susceptible breakpoint 0.25 μg mL^−1): >128 µg/mL
Rescue concentration, Imi (0.12) ([5]; Imi at susceptible breakpoint 0.12 μg mL^−1): >128 µg/mL
Rescue concentration, Amp (8) [6, 10]: >128 µg/mL
Rescue concentration, Cip (0.25) ([6]; Cip at susceptible breakpoint 0.25 μg mL^−1): >128 µg/mL
Rescue concentration, Col (8) [6, 22]: >128 µg/mL
Rescue concentration, Dox (4) [6, 12]: >128 µg/mL
Rescue concentration, Gen (4) [6, 16]: >128 µg/mL
Rescue concentration, Imi (1) [6, 23]: >128 µg/mL
Rescue concentration, Amox (8) [7, 14]: >128 µg/mL
Rescue concentration, Amp (8) [7, 10]: >128 µg/mL
Rescue concentration, Aze (4) ([7]; Aze at susceptible breakpoint 4 μg mL^−1): >128 µg/mL
Rescue concentration, Azi (16) [7, 20]: >128 µg/mL
Rescue concentration, Cef (16) ([7]; Cef at susceptible breakpoint 16 μg mL^−1): >128 µg/mL
Rescue concentration, Ceph (8) [7, 21]: >128 µg/mL
Rescue concentration, Chl (8) [7, 11]: >128 µg/mL
Rescue concentration, Col (8) [7, 22]: >128 µg/mL
Rescue concentration, Dox (4) [7, 12]: >128 µg/mL
Rescue concentration, Gen (4) [7, 16]: >128 µg/mL
Rescue concentration, Imi (1) [7, 23]: >128 µg/mL
Rescue concentration, Tet (4) [7, 24]: >128 µg/mL
Rescue concentration, Amox (8) [8, 14]: >128 µg/mL
Rescue concentration, Amp (8) [8, 10]: >128 µg/mL
Rescue concentration, Col (8) [8, 22]: >128 µg/mL
Rescue concentration, Imi (1) [8, 23]: >128 µg/mL
Rescue concentration, Mero (1) ([8]; Mero at susceptible breakpoint 1 μg mL^−1): >128 µg/mL
Rescue concentration, Pol B (8) ([8]; Pol B at susceptible breakpoint 8 μg mL^−1): >128 µg/mL
Rescue concentration, Azi (2) ([9]; Azi at susceptible breakpoint 2 μg mL^−1): >128 µg/mL
Rescue concentration, Gen (4) [9, 16]: >128 µg/mL
Rescue concentration, Pen (0.12) ([9]; Pen at susceptible breakpoint 0.12 μg mL^−1): >128 µg/mL
Rescue concentration, Tri (8) [9, 13]: >128 µg/mL
Rescue concentration, Van (2) ([9]; Van at susceptible breakpoint 2 μg mL^−1): >128 µg/mL
